Experimental findings from patent US11365181B2, “P-phenylenediamine derivative as potassium channel regulator and preparation method and medical application thereof” (Shanghai Zhimeng Biopharma, Inc., priority 2018, dated 2022) are described below.

Data set [1] addresses KCNQ2 potassium channel (CHO-KCNQ2 cells) (Homo sapiens (Human), UniProt O43526). The data set is described as follows: Activity test of potassium ion channel opener (FDSS/μCELL detection, FluxOR potassium ion channel assay). The format is cell-based. Particulars: for EC50: CHO-KCNQ2 cells, FluxOR fluorescence, FDSS/μCELL. The procedure: Activity Test of Potassium Ion Channel Opener (FDSS/ρCELL Detection)
Cell preparation: CHO-KCNQ2 cells were cultured in a 175 cm^2 culture flask, and when the cells was grown to a density of 60-80%, the culture medium was removed, washed with 7 mL PBS (Phosphate Buffered Saline) once, then 3 mL 0.25% Trypsin was added to digest. After the digestion was completed, 7 mL culture medium (90% DMEM/F12+10% FBS+500 μg/mL G418) was added to neutralize, centrifugated for 3 minutes at 800 rpm. The supernatant was aspirated, then 5 mL culture medium was added to resuspend, and then the cells were counted.
Cell plating: The density to 3×10^4/well was adjusted according to the results of cell counting. After standing at room temperature for 30 minutes, the cells were placed in a 37° C. CO2 incubator and incubated overnight for 16-18 hours. The cell density reached about 80%.
Fluorescent dye incubation: The cell culture medium was discarded, 80 μL/well loading buffer was added, and the cells were incubated in dark at room temperature for 60 minutes.
Compound incubation: the loading buffer was discarded, 80 μL/well prepared compound solution was added, incubated at room temperature and in dark for 20 minutes.
Fluorescence data collection: FDSS/μCELL instrument for real-time fluorescence is used for signal recording, wherein excitation wavelength was 480 nm, emission wavelength was 540 nm, and signals were recorded 1 times per second, after baseline was recorded for 10 seconds, the addition of 20 μL/well stimulation buffer was started, and then the signal was continuously record until the end of 180 seconds.
loading buffer: 10 mL/plate, the preparation method was as follows:
Test buffer sample: 100 mL/plate, the preparation method was as follows:
Stimulation buffer: 5 mL/plate, the preparation method was as follows:
The above buffer was from a commercially available kit, the kit name was FluxOR potassium ion channel assay, the manufacturer's brand was Invitrogen, the article number was F10017, the lot number was 913728.
20 mM DMSO compound mother liquor was prepared, 10 μL of 20 mM compound mother liquor was took and added into 20 μL DMSO solution, serially diluted 3 times to 8 intermediate concentrations; then the middle concentration of the compound was took to the test buffer, 200 times dilution to get the final concentration to be tested, 80 μL was took and added to the test plate.
The highest test concentration was 100 μM, followed by […], 33.33, 11.11, 3.70, 1.23, 0.41, 0.137, 0.045 μM, total 8 concentrations. Each concentration 3 replicate holes.
This concentration of DMSO had no effect on the KCNQ2 potassium channel.
Experimental data was analyzed by Excel 2007 and GraphPad Prism 5.0 software, and the ratio of 180 seconds was calculated to calculate the excitement effect. The excitement effect of the compound is calculated by the following formula: […]
Environment: Temperature about 25° C.
Reagent: FluxOR™ Detection Kit (Invitrogen, Cat #[…])
The experimental data in the report might meet the following criteria: Z′ Factor>0.5
2. Determination Results: See Table 1 for Details, where the Smaller EC50 was, the Higher the Activity of the Corresponding Compound was.
References for the above test methods:
(2) Jinfeng Yue et al. Acta Pharmacologica Sinica, 2016, 37:105-110.

A short description of data set [2]: Pharmacokinetics of compounds 03043 and 03044 in male SD rats. The format is in vivo. Particulars: for AUC(0-inf) / AUC(0-t) / Cmax / half-life / Tmax: rat, plasma. From the text:
(§1) Study on the Pharmacokinetics of Compounds 03043 and 03044
(§2) 1) Research purpose: To obtain the pharmacokinetic characteristics of compounds 03043 and 03044 in male SD rats and their blood-brain barrier (BBB) penetration
(§3) 15 healthy male SD rats (weight range of 200-250 g) were taken and divided into 3 groups, 3 rats were used for intravenous administration in group 1, 3 rats were used for oral administration in group 2, and 9 rats were used for the determination of cerebral blood ratio after oral administration in group 3 (3 rats/time point). Group 2 and group 3 were fasted for more than 12 hours. Intravenous: 1 mg/kg, oral 5 mg/kg, at time point 0.083 (only group 1), 0.25 (only groups 1 and 2), 0.5 (only groups 1 and 2), 1.2 (only groups 1 and 2). After 4, 8 and 24 h (only group 1 and group 2), blood was collected by jugular vein or cardiac puncture, and at least 0.3 mL of whole blood was collected into an EDTA-K2 anticoagulant tube. Within half an hour, the plasma was collected by centrifugation (6000 revolutions, 8 minutes, 4° C.), frozen at −20° C. for later use. At the same time, brain tissues were collected from group 3 (time points were 1, 4, and 8 h respectively), washed with normal saline, blotted dry with absorbent paper, weighed, and frozen at −20° C. for use. (Compound preparation: 5% DMAC+10% Solutol HS 15+85% Saline was used to prepare a solution having a concentration of iv 0.2 mg/mL and po 0.3 mg/mL).
Experimental results: According to the blood drug concentration data obtained, the non-compartmental model of WinNonlin® 7.0 software (Pharsight, USA) was used to calculate the pharmacokinetic parameters after administration.

Data set [3] can be described thus: Plasma and brain concentration / cerebral blood ratio (BBB penetration) in male SD rats after single oral administration. The format is in vivo. Particulars: rat; for concentration at 1 h / Kp at 1 h: 1 h after single oral administration 5 mg/kg; for concentration at 4 h / Kp at 4 h: 4 h after single oral administration 5 mg/kg; for concentration at 8 h / Kp at 8 h: 8 h after single oral administration 5 mg/kg; for Kp / Kp at 1 h / Kp at 4 h / Kp at 8 h: brain/plasma; for Kp: 5 mg/kg, at each time point (1, 4, 8 h), oral administration.
From the text: as §1, §2, §3

The mark [4] stands for this setting: brain, read-out: Brain concentration.
Where [5] appears, read: plasma, read-out: Plasma concentration.

Like-named read-outs stand apart in the source and are kept apart here.

Sequence of KCNQ2 potassium channel (CHO-KCNQ2 cells) (O43526 whole entry): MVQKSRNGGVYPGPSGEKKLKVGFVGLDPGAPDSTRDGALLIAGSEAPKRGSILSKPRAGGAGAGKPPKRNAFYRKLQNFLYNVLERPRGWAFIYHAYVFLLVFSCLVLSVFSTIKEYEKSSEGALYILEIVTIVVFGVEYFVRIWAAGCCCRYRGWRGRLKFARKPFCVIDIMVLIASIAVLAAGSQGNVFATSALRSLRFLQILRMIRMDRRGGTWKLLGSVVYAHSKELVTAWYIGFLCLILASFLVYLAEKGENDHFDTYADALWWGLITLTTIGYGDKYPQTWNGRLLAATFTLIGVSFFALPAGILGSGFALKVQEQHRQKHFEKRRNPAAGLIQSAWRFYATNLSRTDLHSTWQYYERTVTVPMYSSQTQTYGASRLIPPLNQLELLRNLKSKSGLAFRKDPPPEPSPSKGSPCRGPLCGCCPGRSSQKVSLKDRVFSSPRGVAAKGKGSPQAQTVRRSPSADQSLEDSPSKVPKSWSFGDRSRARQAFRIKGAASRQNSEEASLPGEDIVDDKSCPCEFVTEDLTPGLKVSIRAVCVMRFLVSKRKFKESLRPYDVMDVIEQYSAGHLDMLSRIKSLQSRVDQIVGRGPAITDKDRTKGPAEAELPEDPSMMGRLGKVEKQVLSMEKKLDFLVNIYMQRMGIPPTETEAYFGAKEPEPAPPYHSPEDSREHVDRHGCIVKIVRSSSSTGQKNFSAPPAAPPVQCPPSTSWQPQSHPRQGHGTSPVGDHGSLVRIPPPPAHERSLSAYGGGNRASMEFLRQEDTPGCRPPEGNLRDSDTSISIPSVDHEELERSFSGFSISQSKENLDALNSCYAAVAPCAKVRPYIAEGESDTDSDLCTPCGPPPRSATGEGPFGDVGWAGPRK

One may read the EC50 as the concentration at which the effect is half-maximal. Take `Cc1cc(N2CCCc3ccsc3C2)cc(C)c1NC(=O)CC(C)(C)C` [Compound 03026, N-(2,6-dimethyl-4-(4,5,6,8-tetrahydro-7H-thieno[2,3-c]azepin-7-yl)phenyl)-3,3-dimethylbutanamide]: in data set [1], the concentration giving a half-maximal response (EC50) was found to be 88 nM.

For `Cc1cc(N2CCCc3cscc3C2)cc(C)c1NC(=O)CC(C)(C)C` [Compound 03027, N-(2,6-dimethyl-4-(4,6,7,8-tetrahydro-5H-thieno[3,4-c]azepin-5-yl)phenyl)-3,3-dimethylbutanamide], in data set [1], the EC50 worked out at 147 nM.

As for `Cc1cc(N2CCCc3sccc3C2)cc(C)c1NC(=O)CC(C)(C)C` [Compound 03028, N-(2,6-dimethyl-4-(4,6,7,8-tetrahydro-5H-thieno[3,2-c]azepin-5-yl)phenyl)-3,3-dimethylbutanamide], the EC50 in data set [1] was found to be 272 nM.

In the case of `Cc1cc(N2CCCc3cccnc3C2)cc(C)c1NC(=O)CC(C)(C)C` [Compound 03029, N-(2,6-dimethyl-4-(5,6,7,9-tetrahydro-8H-pyrido[2,3-c]azepin-8-yl)phenyl)-3,3-dimethylbutanamide], a half-maximal response in data set [1] (EC50) required 14700 nM. This EC50 lies about 54-fold higher than the previous one.

Compound `Cc1cc(N2CCCCc3sccc32)cc(C)c1NC(=O)CC(C)(C)C` [Compound 03034, (N-(2,6-dimethyl-6-(1-tert-butylacetyl)aniline))-(5,6,7,8-tetrahydro-4H)-thieno [3,2]azaanthracene] registered an EC50 in data set [1] of 71 nM.

The compound `Cc1cc(N2CCCCc3ncccc32)cc(C)c1NC(=O)CC(C)(C)C` [Compound 03037, N-(2,6-Dimethyl-4-(6,7,8,9-tetrahydro-5H-pyrido[32-b]azepin-5-yl)phenyl)-3,3-dimethylbutanamide] showed a concentration giving a half-maximal response (EC50) in data set [1] of 6480 nM. This EC50 lies about 91-fold higher than the previous one.

In data set [1], `Cc1cc2c(s1)CCCCN2c1cc(C)c(NC(=O)CC(C)(C)C)c(C)c1` [Compound 03039, N-(2,6-dimethyl-4-(2-methyl-5,6,7,8-tetrahydro-4H-thieno[3,2-b]azepin-4-yl)phenyl)-3,3-dimethylbutyramide] showed an EC50 of 409 nM.

By AUC(0-inf) is commonly meant total exposure, with the tail of the curve extrapolated. A lower AUC(0-inf) goes with low exposure. One may read the AUC(0-t) as the area under the concentration-time curve up to a stated or last time point. Read a low AUC(0-t) as less exposure. By Cmax is commonly meant the peak of the concentration-time curve. For orientation: half-life means how long it takes for the measured level to halve. Low readings indicate fast loss, high ones slow loss. For orientation: Tmax means the time from dosing to the highest level. In general, Kp refers to the ratio of the level in a tissue or fluid to that in plasma or blood. For the compound `Cc1cc(N2CCCc3sc(Cl)cc3C2)cc(C)c1NC(=O)CC(C)(C)C` [Compound 03043, N-(4-(2-chloro-4,6,7,8-tetrahydro-5H-thieno[3,2-c]azepin-5-yl)-2,6-dimethylphenyl)-3,3-dimethylbutanamide], the “increase of activity versus 6-membered ring comparison compound (ratio of EC50)” value in data set [1] (03043 vs compound A, 03058 vs compound B) is given as “about 2.83 times”. The same compound gave an EC50 in data set [1] of 23 nM. The F in data set [2] (Gavage 5 mg/kg) is on record as 12.79%. In data set [2] (Intravenous 1 mg/kg), the AUC(0-inf) came to 964 ng·h/mL, the AUC(0-t) was 957 ng·h/mL, the highest concentration (Cmax) was found to be 2040 ng/mL and the half-life was 1.42 h. In addition, in data set [2] (po, Gavage 5 mg/kg), the area under the curve AUC(0-inf) worked out at 1110 ng·h/mL, the exposure AUC(0-t) is 612 ng·h/mL, the Cmax worked out at 129 ng/mL and the Tmax is 0.25 h. This compound also showed a half-life in data set [2] (po, Gavage 5 mg/kg) of 12.3 h. In data set [3] (setting [4]), the concentration at 1 h amounted to 67.1 ng/g, the concentration at 4 h is 65.7 ng/g and the concentration at 8 h was found to be 20 ng/g. Also, in data set [3], the partition ratio (Kp) is 1 to 2.4, the Kp at 1 h amounted to 2.4, the Kp at 4 h is 1.5 and the concentration ratio (Kp) at 8 h came out at 1. Moreover, in data set [3] (setting [5]), the concentration at 1 h amounted to 32.2 ng/mL, the concentration at 4 h amounted to 47.9 ng/mL and the concentration at 8 h stood at 20.8 ng/mL.

Turning to `Cc1cc(N2CCCc3cc(Cl)sc3C2)cc(C)c1NC(=O)CC(C)(C)C` [Compound 03044, N-(4-(2-chloro-4,5,6,8-tetrahydro-7H-thieno[2,3-c]azepin-7-yl)-2,6-dimethylphenyl)-3,3-dimethylbutanamide], a half-maximal effect in data set [1] (EC50) was put at 57 nM. Moreover, in data set [2] (Gavage 5 mg/kg), the F worked out at 13.9%. Besides, in data set [2] (Intravenous 1 mg/kg), the AUC(0-inf) is 1060 ng·h/mL, the area under the curve AUC(0-t) was found to be 1040 ng·h/mL, the Cmax was found to be 1740 ng/mL and the half-life is 1.8 h. Further, in data set [2] (po, Gavage 5 mg/kg), the AUC(0-inf) is 889 ng·h/mL, the area under the curve AUC(0-t) stood at 723 ng·h/mL, the peak concentration (Cmax) came to 118 ng/mL and the Tmax came to 0.67 h. The compound also had a half-life in data set [2] (po, Gavage 5 mg/kg) of 7.08 h. In data set [3] (setting [4]), the concentration at 1 h was found to be 251 ng/g, the concentration at 4 h came to 102 ng/g and the concentration at 8 h worked out at 67.6 ng/g. In data set [3], the partition ratio (Kp) was 1 to 2.4, the concentration ratio (Kp) at 1 h worked out at 2.2, the Kp at 4 h is 2.1 and the Kp at 8 h stood at 1.7. Moreover, in data set [3] (setting [5]), the concentration at 1 h was 112 ng/mL, the concentration at 4 h was found to be 50.2 ng/mL and the concentration at 8 h stood at 41.3 ng/mL.

Compound `Cc1cc(N2CCCCc3sc(Cl)cc32)cc(C)c1NC(=O)CC(C)(C)C` [Compound 03049, N-(4-(2-chloro-5,6,7,8-tetrahydro-4H-thieno[3,2-b]azepin-4-yl)-2,6-dimethylphenyl)-3,3-dimethylbutanamide] returned a 50% effective concentration (EC50) in data set [1] of 260 nM.

In data set [1], `Cc1cc(N2CCCOc3cc(F)ccc32)cc(C)c1NC(=O)CC(C)(C)C` [Compound 03059, N-(4-(8-fluoro-3,4-dihydrobenzo[b] [1,4]oxazepine-5(2H)-yl)-2,6-dimethylphenyl)-3,3-dimethylbutanamide] yielded a concentration giving a half-maximal response (EC50) of 860 nM.

In turn, `Cc1cc(N2CCOc3cc(F)ccc32)cc(C)c1NC(=O)CC(C)(C)C` [Compound 03060, N-(2,6-dimethyl-6-(1-tert-butylacetyl)aniline)) 4-(7-fluoro-2,3-dihydro-4H-benzo[1,4] oxazine] returned an EC50 in data set [1] of over 100000 nM.

In the case of `Cc1ccc2c(c1)COCCN2c1cc(C)c(NC(=O)CC(C)(C)C)c(C)c1` [Compound 03066], a half-maximal effect in data set [1] (EC50) was put at 49 nM.

Consider `Cc1cc(N2CCc3cc(F)ccc3C2)cc(C)c1NC(=O)CC(C)(C)C` [Compound B, reference compound], for which the EC50 in data set [1] worked out at 98 nM.

As to `O=C(Nc1ccc(Cl)nc1)c1ccc(F)cc1` [ZTZ240, reference compound], the half-maximal effective concentration (EC50) in data set [1] stood at 8230 nM. This EC50 is about 84-fold higher than that of the compound before.
